Measurements as given in ChEMBL document CHEMBL1201862, “PubChem BioAssay data set” (2004).
Activity calls are given as the source filed them.

Legend:
[1] = biological target: T1, Ubiquitin-conjugating enzyme E2 N (Homo sapiens, UniProt P61088); format: functional;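 further: Dose-response confirmation in a TR-FRET assay detecting UBC13-driven polyubiquitin chain formation, inhibition measured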
T1 sequence (P61088 whole entry): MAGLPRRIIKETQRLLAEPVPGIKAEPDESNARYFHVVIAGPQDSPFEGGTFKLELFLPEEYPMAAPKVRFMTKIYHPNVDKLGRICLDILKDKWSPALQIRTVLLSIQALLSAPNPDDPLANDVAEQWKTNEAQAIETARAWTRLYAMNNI

Fatty acid synthase [2] = biological target: T2, Fatty acid synthase (Homo sapiens, UniProt P49327); assay: FAS thioesterase domain inhibitors, dose response, biochemical, endpoint fluorescence intensity, uHTS hits (AID 624327); format: functional;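 further: fluorescence from hydrolysis of an O-methyl fluorescein acyl ester substrate by the enzyme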
Fatty acid synthase [3] = biological target: T2, Fatty acid synthase; assay: FAS thioesterase domain inhibitors, dose response, biochemical, kinetic fluorescence intensity (AID 624326); format: functional;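 further: rate of fluorescence rise from hydrolysis of a fluorogenic O-methyl fluorescein ester substrate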
[4] = biological target: T3, Corticotropin-releasing factor receptor 2/Corticotropin-releasing factor-binding protein (Homo sapiens, UniProt P24387+Q13324); assay: Dose Response confirmation of uHTS hits for small molecule antagonists of the CRF-binding protein and CRF-R2 receptor complex.; format: functional; conditions: read-out: IC50_Mean
T3 sequence (Q13324 whole entry): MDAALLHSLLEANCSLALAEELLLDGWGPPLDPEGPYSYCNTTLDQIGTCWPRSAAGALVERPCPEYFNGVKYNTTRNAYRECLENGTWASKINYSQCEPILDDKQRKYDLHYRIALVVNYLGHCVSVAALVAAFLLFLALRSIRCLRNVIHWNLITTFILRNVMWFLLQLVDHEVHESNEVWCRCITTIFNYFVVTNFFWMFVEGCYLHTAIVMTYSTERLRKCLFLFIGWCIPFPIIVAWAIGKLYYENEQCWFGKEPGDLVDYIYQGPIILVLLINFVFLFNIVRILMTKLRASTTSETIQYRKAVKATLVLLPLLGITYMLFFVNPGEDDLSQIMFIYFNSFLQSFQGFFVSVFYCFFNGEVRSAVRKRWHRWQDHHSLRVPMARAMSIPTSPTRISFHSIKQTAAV
T3 sequence (P24387 whole entry): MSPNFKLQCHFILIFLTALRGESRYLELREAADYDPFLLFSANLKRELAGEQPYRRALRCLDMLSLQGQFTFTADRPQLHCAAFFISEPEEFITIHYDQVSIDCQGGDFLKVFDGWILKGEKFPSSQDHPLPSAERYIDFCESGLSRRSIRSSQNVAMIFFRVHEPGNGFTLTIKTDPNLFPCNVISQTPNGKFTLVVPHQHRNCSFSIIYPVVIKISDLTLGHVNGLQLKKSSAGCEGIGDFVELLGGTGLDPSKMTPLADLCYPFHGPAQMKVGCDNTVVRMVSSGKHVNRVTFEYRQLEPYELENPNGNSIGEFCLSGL

[5] = biological target: T3, Corticotropin-releasing factor receptor 2/Corticotropin-releasing factor-binding protein; assay: activators of CRF receptor 2 with binding protein – uHTS hits, confirmation (AID 602473); format: functional; conditions: read-out: EC50_Mean
Protein skinhead-1 = biological target: T4, Protein skinhead-1 (Caenorhabditis elegans, UniProt P34707); format: functional
T4 sequence (P34707 whole entry): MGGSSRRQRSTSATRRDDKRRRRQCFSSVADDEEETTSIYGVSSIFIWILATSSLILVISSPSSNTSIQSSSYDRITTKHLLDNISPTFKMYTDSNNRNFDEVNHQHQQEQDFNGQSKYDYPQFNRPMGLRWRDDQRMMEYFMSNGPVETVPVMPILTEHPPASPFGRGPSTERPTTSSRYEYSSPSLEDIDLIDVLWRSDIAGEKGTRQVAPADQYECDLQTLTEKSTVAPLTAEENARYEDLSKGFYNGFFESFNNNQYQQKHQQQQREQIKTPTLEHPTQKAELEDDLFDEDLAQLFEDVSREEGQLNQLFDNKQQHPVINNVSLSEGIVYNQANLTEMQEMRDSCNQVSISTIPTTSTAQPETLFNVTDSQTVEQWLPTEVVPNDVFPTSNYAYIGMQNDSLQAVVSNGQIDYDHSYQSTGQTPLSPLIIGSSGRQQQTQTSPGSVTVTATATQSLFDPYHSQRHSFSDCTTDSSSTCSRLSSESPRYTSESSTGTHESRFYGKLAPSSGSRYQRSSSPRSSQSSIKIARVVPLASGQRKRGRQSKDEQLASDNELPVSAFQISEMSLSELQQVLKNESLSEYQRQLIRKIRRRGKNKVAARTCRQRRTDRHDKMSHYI

[6] = microbe, parasite or virus in culture; format: functional; conditions: Mycobacterium tuberculosis
[7] = inhibitors of clade B AD8 Env fusion, dose response, cell-based, cherry-pick (AID 652062); format: functional;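 further: luciferase signal from cell-cell fusion driven by HIV-1 clade B AD8 Env; potency is for inhibitors of fusion seen as a drop in luminescence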
INS1 = assay: beta cell apoptosis inhibitors, cytokine rescue, dose response, luminescence, retest (AID 449756); format: functional, cell-based; conditions: Rattus norvegicus;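 further: cell death triggered by IL-1 beta plus TNF-alpha plus IFN-gamma mixture; protective hits raise ATP signal compared with cytokine alone wells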
[8] = biological target: T5, Polyadenylate-binding protein 1 (Homo sapiens, UniProt P11940); assay: PABP1 MLLE–PAM2 interaction inhibitors, dose response, miRNA deadenylation inhibitor project, biochemical, fluorescence polarization, Cy5-PAM2 peptide, secondary (AID 602260); format: functional; conditions: read-out: IC50_Mean
[9] = biological target: T5, Polyadenylate-binding protein 1; assay: PABP1 MLLE–PAM2 binding inhibitor potency, dose response, biochemical, fluorescence polarization, FITC-PAM2 peptide (AID 602259); format: functional; conditions: read-out: IC50_Mean
[10] = HEp-2 cell cytotoxicity, dose response, cytotoxicity control for RSV inhibitor project, HTS (AID 2410); format: functional; conditions: human respiratory syncytial virus

T5 sequence (P11940 whole entry): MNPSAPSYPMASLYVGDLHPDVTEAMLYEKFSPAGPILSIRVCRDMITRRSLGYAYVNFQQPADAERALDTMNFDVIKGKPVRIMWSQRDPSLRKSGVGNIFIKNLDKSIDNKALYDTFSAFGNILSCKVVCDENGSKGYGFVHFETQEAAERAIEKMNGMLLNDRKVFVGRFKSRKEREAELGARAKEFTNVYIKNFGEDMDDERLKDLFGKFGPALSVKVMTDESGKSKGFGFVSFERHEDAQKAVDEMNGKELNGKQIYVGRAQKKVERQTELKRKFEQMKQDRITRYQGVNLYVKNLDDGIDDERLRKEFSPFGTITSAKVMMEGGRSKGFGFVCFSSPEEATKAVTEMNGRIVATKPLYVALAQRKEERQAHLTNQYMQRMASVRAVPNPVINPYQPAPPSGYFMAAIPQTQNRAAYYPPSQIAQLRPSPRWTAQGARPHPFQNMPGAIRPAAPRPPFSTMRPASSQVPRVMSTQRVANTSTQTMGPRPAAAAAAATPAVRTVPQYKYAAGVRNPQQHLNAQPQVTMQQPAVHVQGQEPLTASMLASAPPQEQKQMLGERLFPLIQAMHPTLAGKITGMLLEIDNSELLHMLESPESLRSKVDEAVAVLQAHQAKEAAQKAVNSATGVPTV
T2 sequence (P49327 whole entry, the tested form may be a part): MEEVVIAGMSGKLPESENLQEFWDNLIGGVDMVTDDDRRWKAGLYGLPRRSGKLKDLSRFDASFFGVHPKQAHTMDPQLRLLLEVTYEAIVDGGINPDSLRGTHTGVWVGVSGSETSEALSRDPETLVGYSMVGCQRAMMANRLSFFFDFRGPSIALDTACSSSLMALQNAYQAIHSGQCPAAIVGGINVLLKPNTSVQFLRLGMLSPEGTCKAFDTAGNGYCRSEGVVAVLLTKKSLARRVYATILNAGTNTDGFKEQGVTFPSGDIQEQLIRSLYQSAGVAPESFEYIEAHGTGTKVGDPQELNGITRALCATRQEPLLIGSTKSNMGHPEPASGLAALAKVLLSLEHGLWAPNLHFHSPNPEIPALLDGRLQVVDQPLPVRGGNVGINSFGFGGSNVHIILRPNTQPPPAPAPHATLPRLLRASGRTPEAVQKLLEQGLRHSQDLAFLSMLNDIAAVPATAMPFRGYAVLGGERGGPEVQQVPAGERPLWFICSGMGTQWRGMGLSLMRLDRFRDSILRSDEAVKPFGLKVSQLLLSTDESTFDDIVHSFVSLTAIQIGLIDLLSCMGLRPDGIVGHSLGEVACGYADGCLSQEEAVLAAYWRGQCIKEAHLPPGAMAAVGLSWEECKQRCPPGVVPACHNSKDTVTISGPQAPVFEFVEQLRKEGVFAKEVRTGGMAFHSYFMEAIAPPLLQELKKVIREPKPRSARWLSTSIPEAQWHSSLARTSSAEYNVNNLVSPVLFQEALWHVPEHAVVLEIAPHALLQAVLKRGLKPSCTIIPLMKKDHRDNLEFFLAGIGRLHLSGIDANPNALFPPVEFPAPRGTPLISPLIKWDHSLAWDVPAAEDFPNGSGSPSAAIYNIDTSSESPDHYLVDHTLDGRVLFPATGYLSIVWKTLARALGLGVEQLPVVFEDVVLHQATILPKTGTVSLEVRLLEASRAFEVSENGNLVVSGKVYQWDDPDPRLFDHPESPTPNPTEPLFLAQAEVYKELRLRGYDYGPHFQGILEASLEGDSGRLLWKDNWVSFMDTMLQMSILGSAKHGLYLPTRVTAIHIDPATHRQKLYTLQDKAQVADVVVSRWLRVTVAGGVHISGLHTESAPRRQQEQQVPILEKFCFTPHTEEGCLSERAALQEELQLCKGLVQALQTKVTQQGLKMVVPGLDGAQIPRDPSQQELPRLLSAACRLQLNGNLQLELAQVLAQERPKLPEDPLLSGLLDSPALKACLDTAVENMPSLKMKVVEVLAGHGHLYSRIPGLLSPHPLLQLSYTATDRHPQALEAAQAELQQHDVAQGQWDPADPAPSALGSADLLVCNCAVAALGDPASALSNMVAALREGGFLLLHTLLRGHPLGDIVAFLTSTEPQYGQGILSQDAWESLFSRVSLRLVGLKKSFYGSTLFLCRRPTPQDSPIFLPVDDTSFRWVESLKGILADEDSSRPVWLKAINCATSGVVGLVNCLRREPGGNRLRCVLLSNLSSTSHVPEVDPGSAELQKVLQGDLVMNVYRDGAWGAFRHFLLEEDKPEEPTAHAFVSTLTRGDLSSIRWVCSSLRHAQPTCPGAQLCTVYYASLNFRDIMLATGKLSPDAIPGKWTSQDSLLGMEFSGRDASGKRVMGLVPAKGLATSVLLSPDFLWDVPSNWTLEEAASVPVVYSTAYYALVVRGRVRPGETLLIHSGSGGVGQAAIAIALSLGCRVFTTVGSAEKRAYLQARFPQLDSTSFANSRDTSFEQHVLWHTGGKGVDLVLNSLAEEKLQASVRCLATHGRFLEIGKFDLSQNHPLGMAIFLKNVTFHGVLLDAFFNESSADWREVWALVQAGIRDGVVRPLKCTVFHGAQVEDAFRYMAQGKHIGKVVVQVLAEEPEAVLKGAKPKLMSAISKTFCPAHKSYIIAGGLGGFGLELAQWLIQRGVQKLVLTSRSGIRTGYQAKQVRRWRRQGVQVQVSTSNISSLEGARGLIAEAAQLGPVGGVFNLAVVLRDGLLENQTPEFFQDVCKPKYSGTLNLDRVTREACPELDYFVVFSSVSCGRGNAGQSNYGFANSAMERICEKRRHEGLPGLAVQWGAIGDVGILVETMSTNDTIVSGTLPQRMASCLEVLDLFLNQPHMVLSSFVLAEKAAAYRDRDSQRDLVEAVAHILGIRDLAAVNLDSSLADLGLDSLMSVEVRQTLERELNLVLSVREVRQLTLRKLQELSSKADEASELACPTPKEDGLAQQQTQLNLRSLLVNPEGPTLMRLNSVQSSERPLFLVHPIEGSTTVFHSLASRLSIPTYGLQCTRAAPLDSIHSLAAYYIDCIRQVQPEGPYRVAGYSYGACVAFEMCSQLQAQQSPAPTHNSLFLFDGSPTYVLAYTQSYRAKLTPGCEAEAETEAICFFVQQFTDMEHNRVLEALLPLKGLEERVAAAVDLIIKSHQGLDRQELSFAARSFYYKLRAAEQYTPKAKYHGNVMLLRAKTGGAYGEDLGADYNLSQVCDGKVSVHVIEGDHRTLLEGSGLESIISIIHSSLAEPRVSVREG

Structure (SMILES): COc1ccccc1NC(=O)c1c(/N=C/c2c(O)ccc3ccccc23)cnn1C
- IC50 [1]: > 20 µM (inactive)

Structure (SMILES): CCc1ccc(S(=O)(=O)c2nnn3c2nc(N2CCOCC2)c2ccccc23)cc1
- IC50 (Fatty acid synthase [2]): 14.3 µM (active)
- IC50 (Fatty acid synthase [3]): 6.03 µM (active)

Structure (SMILES): N#Cc1ccc(CSc2ccc(S(=O)(=O)N3CCCC3)cn2)cc1
- IC50 (Fatty acid synthase [2]): 8.8 µM (active)
- IC50 (Fatty acid synthase [3]): 6.67 µM (active)

Structure (SMILES): Cn1cccc1Cc1nnc(SCC(=O)N2CCN(c3ccccc3)CC2)n1-c1ccc(F)cc1
- IC50 [4]: > 47.1 µM (inactive)
- EC50 [5]: > 53 µM (inactive)

Structure (SMILES): COc1ccc(-n2c(C)nc3cc(C(=O)NCc4ccco4)ccc32)cc1
- IC50 (Protein skinhead-1): > 100 µM (inactive)

Structure (SMILES): N#Cc1c(N)nc(SC2CCCCC2=O)c(C#N)c1-c1ccco1 (stereo not given)
- IC50 [4]: < 0.368 µM (active)
- EC50 [5]: > 53 µM (inactive)

Structure (SMILES): O=C1C=C(c2ccc3[nH]ccc3c2)C[C@@H](c2ccc(Cl)cc2)C1
- CC50 [6]: > 40 µM (active)

Structure (SMILES): CCCCCC(=O)OCc1ccc(C2=CC(=O)CC(C)(C)C2=O)cc1
- IC50 (Fatty acid synthase [2]): 7.22 µM (active)
- IC50 (Fatty acid synthase [3]): 6.78 µM (active)

Structure (SMILES): COCC(=O)Nc1ccc2c(c1)C(=O)N(C)C[C@@H](OC)[C@@H](C)CN(C)[C@H](C)CO2
- AC50 [7]: 14.8 µM (active)

Structure (SMILES): CC(=O)Cc1cc(O)c2ccccc2c1OC(=O)c1ccc(Br)cc1
- AC50 (INS1): 14.9 µM (active)
- IC50 [4]: > 47.1 µM (inactive)
- EC50 [5]: > 53 µM (inactive)

Structure (SMILES): CCN(CC)C(=O)CSc1nnc2nnc3cc(C)ccc3n12
- IC50 [8]: > 66 µM (inactive)
- IC50 [9]: 49.8 µM (inactive)

Structure (SMILES): O=C(/C=C/c1cc([N+](=O)[O-])ccc1OC(F)F)NCc1ccc(Cl)cc1
- IC50 (Fatty acid synthase [2]): 0.351 µM (active)
- IC50 (Fatty acid synthase [3]): 0.413 µM (active)

Structure (SMILES): O=C(NCC(=O)N1CCOCC1)c1ccc(Cl)c(Cl)c1
- IC50 (Protein skinhead-1): > 100 µM (inactive)

Structure (SMILES): O=S(=O)(c1cccs1)N1CCN(Cc2nc(O)c3cc(Br)cc(Br)c3n2)CC1
- IC50 (Fatty acid synthase [2]): 12.5 µM (active)
- IC50 (Fatty acid synthase [3]): 9.03 µM (active)

Structure (SMILES): O=S(=O)(Oc1ccccc1C(=S)N1CCOCC1)c1ccc(Cl)cc1
- IC50 [8]: > 66 µM (inactive)
- IC50 [9]: > 66 µM (inactive)

Structure (SMILES): N#C/C(=C\c1cccn1-c1ccccc1)C(=O)NC1CCCCC1
- IC50 [4]: > 47.1 µM (inactive)
- EC50 [5]: > 53 µM (inactive)

Structure (SMILES): CNCC(O)c1cc(OCc2ccccc2)c(OCc2ccccc2)cc1F (stereo not given)
- CC50 [10]: 22.3 µM (active)
- IC50 [1]: > 20 µM (inactive)

Structure (SMILES): Cn1nc(C(=O)O)c(=O)n(C)c1=O
- IC50 [8]: > 66 µM (inactive)
- IC50 [9]: > 66 µM (inactive)

Structure (SMILES): COc1ccc(NS(=O)(=O)c2ccc3c(c2)OCCO3)cc1OC
- AC50 [7]: 7.24 µM (active)

Structure (SMILES): Cc1ccc(C(=O)NC(=S)Nc2ccc3[nH]c(O)nc3c2)c(C)c1
- IC50 [8]: > 66 µM (inactive)
- IC50 [9]: > 66 µM (inactive)
